Source: patent publication US10722575B2, “Use of 1,3-diphenylprop-2-en-1-one derivatives for treating liver disorders” (GENFIT, priority 2009, dated 2020)

How the values were obtained:
Type in all cases: in vivo
[1] = system: ob/ob mice; test: ob/ob mice, plasma ALAT after 26 days of treatment; conditions: 26 days daily gavage; Cpd 29 30 mg/kg/day, Rosiglitazone 10 mg/kg/day; FIG. 2C
Experimental: The compounds of the General Formula (I) were tested in a murine model of type II diabetes, the ob/ob mice. […] After 26 days of treatment, animals were sacrificed and plasma samples and livers were harvested. Hepatic expression of genes that are known to be implicated in the liver inflammation process was evaluated and plasmatic levels of ALAT were measured (Panels A-C). Statistical analysis was performed using unpaired T-test with three p values that defines statistical relevance (* means p<0.05; ** means p<0.01; *** means p<0.001).
Male ob/ob mice (8 weeks of age) were purchased from Charles River (L'Arbresle, France) and were kept on a 12-hour light/dark cycle at a constant temperature of 20±3° C. After a 1 week acclimation, mice were separated in groups of 8 animals selected such that the distribution of their body weight and their 6 hours fasting glycemia determined before the experiment were uniform. Animals were fed a standard chow diet (R03, SAFE) and treated during 26 days with the compounds of interest. […] Control animals were treated with vehicle only (Carboxymethlycellulose 1%+Tween-80 0.1%). Animals had access to food and water ad libitum.
At the end of the studies, the animals were weighed and sacrificed under anesthesia. […]

[2] = system: hApoE2 KI/PPARalpha KO mice; test: hApoE2 KI/PPARalpha KO mice on Western diet, 2 weeks, histological scores of liver steatosis and intralobular inflammation; conditions: 30 mg/kg/day
Experimental: Animals were fed a Western diet (20% saturated fat and 0.2% cholesterol, Harlan Teklad TD88137) during 2 weeks in the first study, that involved the daily administration of Cpd 29 (at 30 mg/kg/day by oral gavage), and during 6 weeks in the second study, that involved the daily administration of Compound 1 of WO 2007147879 (Cpd1, at 30 mg/kg/day by oral gavage). Control animals were treated with vehicle only (Carboxymethlycellulose 1%+Tween-80 0.1%). Animals had access to food and water ad libitum.
At the end of the studies, the animals were weighed and sacrificed under anesthesia. Blood was collected from the retro-orbital sinus; plasma was obtained by centrifugation (4 000 rpm, at 4° C. for 15 min) and subsequently frozen and stored at −20° C. Tissues and livers were isolated and snap-frozen in liquid nitrogen and stored at −80° C. for subsequent analysis (gene expression and biochemistry) or fixed in 4% paraformaldehyde for histology.
Formalin-fixed liver tissue was processed, and 5-μm-thick paraffin sections were stained with Hematoxylin and Eosin. The histological analysis of stained liver sections was carried out in blind conditions to quantify liver steatosis and liver intralobular inflammation. Liver steatosis was scored from 0 to 3 as follows: 0 (very slightly affected), 1 (slightly affected), 2 (moderately affected), 3 (highly affected). Liver intralobular inflammation was also scored depending on the number of inflammatory foci counted by field of observation as follows: 0 (<1 focus/field), 1 (1 to 2 foci/field), 2 (2 to 4 foci/field) 3 (more than 4 foci/field).
Exemplary compounds of the General Formula (I) were tested in vivo in a high fat diet mice model. hApoE2 KI and hApoE2 KI/PPARalpha KO (“humanized” ApoE2 knock-in mice deficient for the mPPARalpha gene) were fed a Western diet and daily treated with the Cpd 29 at 30 mg/kg/day during 2 weeks. At the end of the protocol, liver steatosis and intra-lobular inflammation were evaluated in the control and treated mice by means of histological analysis and specific scores.

[3] = system: hApoE2 KI/PPARalpha KO mice; test: hApoE2 KI/PPARalpha KO mice on Western diet, hepatic lipid analysis (liver triglycerides); conditions: 30 mg/kg/day by gavage, 6 weeks, FIG. 4D
Experimental: The compounds of the General Formula (I) were tested in vivo in a high fat diet mice model. Dyslipidemic “humanized” hApoE2 KI deficient for PPARalpha were fed a Western diet and treated during 6 weeks. The compounds of interest, including the Compound 29 of WO 2004/005233 at 30 mg/kg/day and the Compound 1 of WO 2007/147879 at 30 mg/kg/day were orally administrated by gavage. At the end of the protocol, animals were sacrificed, livers were harvested and the hepatic expression of relevant genes implicated in the liver inflammation and the fibrosis processes were evaluated by quantitative RT-PCR. In parallel, liver triglycerides contents were evaluated (Panels A-D). Statistical analysis was performed as indicated for FIG. 1.
Animals were fed a Western diet (20% saturated fat and 0.2% cholesterol, Harlan Teklad TD88137) during 2 weeks in the first study, that involved the daily administration of Cpd 29 (at 30 mg/kg/day by oral gavage), and during 6 weeks in the second study, that involved the daily administration of Compound 1 of WO 2007147879 (Cpd1, at 30 mg/kg/day by oral gavage). […]
In another study, the liver-specific anti-inflammatory and anti-fibrotic properties effects of Cpd 29 and Compound 1 of WO 2007/147879 (Cpd 1) were evaluated in the hApoE2 KI/PPARalpha KO mice that were fed a Western diet and daily treated with the selected compounds during 6 weeks.

[4] = hApoE2 KI/PPARalpha KO mice, Western diet

1-[4-methylthiophenyl]-3-[3,5-dimethyl-4-carboxydimethylmethyloxyphenyl]prop-2-en-1-one [Cpd 29]
plasmatic levels of ALAT [1]: statistically significant decrease
development of liver inflammation induced by the diet [2, 4]: inhibits
development of liver steatosis induced by the diet [2, 4]: inhibits
Liver Inflammation (score) 0 ([2]; share of group with score 0 (<1 focus/field), hApoE2 KI/PPARalpha KO): 67%
Liver Steatosis (score) 0 ([2]; share of group with score 0 (very slightly affected), hApoE2 KI/PPARalpha KO): 0%
Liver Inflammation (score) 1 ([2]; share of group with score 1 (1 to 2 foci/field), hApoE2 KI/PPARalpha KO): 17%
Liver Steatosis (score) 1 ([2]; share of group with score 1 (slightly affected), hApoE2 KI/PPARalpha KO): 33%
Liver Inflammation (score) 2 ([2]; share of group with score 2 (2 to 4 foci/field), hApoE2 KI/PPARalpha KO): 17%
Liver Steatosis (score) 2 ([2]; share of group with score 2 (moderately affected), hApoE2 KI/PPARalpha KO): 50%
Liver Steatosis (score) 3 ([2]; share of group with score 3 (highly affected), hApoE2 KI/PPARalpha KO): 17%
Liver Inflammation (score) 3 ([2]; share of group with score 3 (more than 4 foci/field), hApoE2 KI/PPARalpha KO): 0%
triglycerides accumulation in the liver [3]: prevented
